Experimental data from article PMC11487561 (ACS Chemical Neuroscience, 2024).
Read-outs that look alike come from different tables or passages of the source.

Key:
rat M4 (rM4) = rat M4 (rM4) (Rattus norvegicus, UniProt P08485); assay: Calcium mobilization assay, rat M4; format: cell-based
[1] = Intrinsic clearance in human liver microsomes; format: in vitro ADME; conditions: for CLint scaled at 1 µM: pH 7.4, human liver microsomes
Experimental: (§1) Intrinsic Clearance in Rat and Human Liver Microsomes
(§2) The in vitro intrinsic clearance (CL int) was investigated in commercially obtained hepatic microsomes from rat and human donors using the substrate depletion (i.e., loss-of-parent vs. time, or t 1/2 method) approach with analyte detection via liquid chromatography-tandem mass spectrometry (LC-MS/MS). For each species, mean %parent remaining values at each time point were calculated from replicates raw data (analyte:IS peak area ratios) and used to determine in vitro t 1/2 and CLint.
(§3) Experiments were carried out using a robot-assisted (TECAN model Evo 200). Compound was incubated (1 µM final concentration) in buffer (100 mM potassium phosphate pH 7.4 with 3 mM MgCl2) containing hepatic microsomes (0.5 mg/mL final concentration) from multiple species, discretely, at 37 °C under constant orbital shaking. After 5 minutes (pre-incubation), reactions were initiated by addition of nicotinamide adenine dinucleotide phosphate (NADPH, 1 mM final concentration). At selected time intervals (0, 3, 7, 15, 25, and 45 minutes) post-addition of NADPH, aliquots (50 µL) were taken and placed into a 96-shallow-well plate containing ice cold acetonitrile (150 µL) with carbamazepine (IS, 50 nM). The plates were then centrifuged (3000 rcf at 4 °C) for 10 minutes. The supernatants were transferred to a new 96-shallow-well daughter plate and diluted (1:1 v/v) with water (Milli-Q filtered). The plates were then sealed in preparation for LC-MS/MS analysis (see below).
(§4) Raw LC-MS/MS peak area data generated from the assay samples were used to construct natural log-transformed %parent remaining vs. time plots (using t = 0 minute post-NADPH addition sample data as starting point set to 100%). In vitro compound half-life (t 1/2) values were obtained using the following […]
(§5) k is the slope from linear regression analysis of the natural log-transformed data (using means from Where all replicates at each time point). Resulting t 1/2 values were then used to calculate hepatic CLint values according to the following equation and with the use of species-specific scale-up factors for liver weight (grams) per total body weight (kg): […]
(§6) CLint = in vitro t1/2 x 0.5 mg microsomes x 1 gram liver x kg body wt aScale-up factors used are 45 (rat) and 20 (human).2
(§7) Predicted hepatic clearance (CLhep) was calculated using the following equation: […]
(§8) Qh represents hepatic blood flow (mL/min/kg): 21 for human, 70 for rat, and 90 for mouse.
(§9) Prepared samples were injected (10 µL each) onto an AB Sciex Triple Quad 4500 mass spectrometer system with an Agilent 1260 Infinity II pump and autosampler. Mass spectrometer conditions are described in Table S1. Quantitation of compounds was performed via AB Sciex Multiquant software using the raw analyte:IS peak area ratios. The typical detection range was 0.5 ng/mL to ≥ 5,000 ng/mL utilizing a quadratic equation regression with 1/x2 weighting. […]
(§10) Table S1. LC-MS/MS Conditions*
(§11) Mobile phase A 0.5% Formic Acid in Water
(§12) Mobile phase B 0.5% Formic Acid in Acetonitrile
(§13) Gradient Time % Mobile Phase B

[2] = Binding in brain homogenate from rat (equilibrium dialysis); format: in vitro ADME; conditions: for rat fbrain: fraction unbound, equilibrium dialysis, rat brain homogenates; for fraction unbound at 6 h, 1 µM: rat, brain homogenate, in %, read-out: fu,brain (rat brain homogenate)
Experimental: Binding in brain homogenate from rat.
Determination of fraction unbound (f u) in brain homogenate from rat was conducted using the same methodology and procedure than described for plasma protein binding assay with the following modifications: 1) a final compound concentration of 1 μM was used, 2) naïve rat brains were homogenized in DPBS (1:3 composition of brain: DPBS, w/w) using a Mini-Bead Beater™ machine in order to obtain […]
The diluted fraction unbound (f u2) in brain was calculated as (analyte to IS MS peak area ratio from Trans-buffer side) / (analyte to IS MS peak area ratio from Cis-brain homogenate side). Undiluted fraction unbound for the brain was calculated using the following equation: […]
Mean values for each species were calculated from 3 replicates. […]

[3] = Rat plasma-to-brain level (PBL) cassette, brain distribution; format: in vivo; conditions: SD rat, 0.2 mg/kg IV; for Kp,uu, brain:plasma / Kp uu at 0.25 h: unbound brain to unbound plasma ratio; for Kp at 0.25 h / Kp uu at 0.25 h: male, Sprague-Dawley, rat, brain / plasma, iv
[4] = Binding in plasma from human (equilibrium dialysis); format: in vitro ADME; conditions: human, plasma, read-out: human fu,plasma
Experimental: (§14) Binding in plasma from rat and human.
(§15) Determination of compounds’ fraction unbound (f u) in plasma from rat and human was conducted in vitro via equilibrium dialysis using HTDialysis membrane plates. Dialysis membranes (four paired strips per HTD assay) were hydrated as described by the manufacturer and inserted into the HTD plate, which was assembled and prepared for sample addition by the dispensing of blank buffer (DPBS, 100 µL/well) into the ‘top half’ of each membrane-split well. Each compound was diluted into plasma from each species (5 µM final concentration), which was aliquoted in triplicate to the ‘bottom half’ of the prepared HTD plate wells. The HTD plate was sealed and incubated for 6 hours at 37 °C. Following incubation, each well (both top and bottom halves) were transferred (20 µL) to the corresponding wells of a 96-shallow-well (V-bottom) plate. The daughter plates were then matrix-matched (buffer side wells received equal volume of plasma, and plasma side wells received equal volume of buffer), and extraction solution (120 µL; acetonitrile containing 50 nM carbamazepine as IS) was added to all wells of both daughter plates to precipitate protein and extract test article. The plates were then sealed and centrifuged (3500 rcf) for 10 minutes at ambient temperature. Supernatant (60 µL) from each well of the daughter plates was then transferred to the corresponding wells of new daughter plates (96-shallow-well, V bottom) containing water (Milli-Q, 60 µL/well), and the plates were sealed in preparation for LC-MS/MS analysis (see below). fu was calculated as (analyte to IS MS peak area ratio from Trans-buffer side) / (analyte to IS MS peak area ratio from Cis-plasma side). Mean values for each species were calculated from 3 replicates.

human M4 (hM4) = target: T1, human M4 (hM4) (Homo sapiens, UniProt P08173); assay: Calcium mobilization assay, hM4/Gqi5-CHO cells, EC20 acetylcholine (PAM); format: cell-based; conditions: for fold increase in hM4 potency (EC50) vs comparator analogue: 14h vs 14c, 22g vs 14j, 22j vs 14k, 22k vs 14g, 22f vs 14e; for Emax: read-out: hM4 %ACh Max
T1 construct: expressed in transfected cells
T1 sequence (P08173 1-479): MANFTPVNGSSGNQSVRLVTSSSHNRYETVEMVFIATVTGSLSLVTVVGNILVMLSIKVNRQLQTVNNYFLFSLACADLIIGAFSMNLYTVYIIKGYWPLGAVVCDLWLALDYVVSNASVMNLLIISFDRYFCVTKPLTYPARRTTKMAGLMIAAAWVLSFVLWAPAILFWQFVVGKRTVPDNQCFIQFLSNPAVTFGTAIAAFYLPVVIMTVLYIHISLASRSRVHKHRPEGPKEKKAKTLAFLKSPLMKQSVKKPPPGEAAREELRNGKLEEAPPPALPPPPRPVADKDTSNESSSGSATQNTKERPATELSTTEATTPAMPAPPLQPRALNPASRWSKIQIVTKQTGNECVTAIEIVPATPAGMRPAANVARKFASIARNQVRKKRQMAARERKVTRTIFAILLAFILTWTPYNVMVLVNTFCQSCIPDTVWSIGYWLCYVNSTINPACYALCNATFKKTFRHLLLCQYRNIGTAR

[5] = Intrinsic clearance in rat liver microsomes; format: in vitro ADME; conditions: for CLint scaled at 1 µM: pH 7.4, rat liver microsomes
Experimental: as §1, §2, §3, §4, §5, §6, §7, §8, §9, §10, §11, §12, §13

[6] = Binding in plasma from rat (equilibrium dialysis); format: in vitro ADME; conditions: read-out: rat fu,plasma
Experimental: as §14, §15

[7] = system: amphetamine-induced hyperlocomotion in rats; assay: Rat amphetamine-induced hyperlocomotion (AHL); format: in vivo; conditions: 10 mg/kg p.o. + amphetamine 0.75 mg/kg s.c.
Experimental: Rat Amphetamine-Induced Hyperlocomotion (AHL) Protocol
Male Harlan Sprague Dawley rats with a mean body weight of 240 g (range 221-264 g) were tested in SmartFrame Open Field locomotor activity test chambers to automatically record locomotor activity. All rats were habituated in locomotor activity enclosures for 30 min, followed by pretreatment by oral gavage for an additional 30 min with either vehicle or a dose of VU6016235 or the comparator M 4 PAM VU0467154. Next, rats were injected subcutaneously with vehicle or a dose of 0.75 mg/kg amphetamine and then monitored for an additional 60 min. Changes in locomotor activity were recorded for a total of 120 min. Locomotor data were expressed as the number of photobeam breaks/5 min intervals across the 120-min test session or as the total ambulation, calculated as sum of photobeam beam breaks from the time of amphetamine administration (60 min) until the end of the study (120 min). Time course data were analyzed by two-way ANOVA with main effects of treatment and time; changes in total ambulation were analyzed by one-way ANOVA followed by Dunnett’s post hoc test (GraphPad Prism 7 [GraphPad Software, San Diego, CA]). For all tests, α ≤ 0.05 was considered to represent statistical significance.
Finally, percent reversal data were calculated in Microsoft Excel using the following formula: Percent Reversal = 100 - {[(total ambulation in individual animal from t = 60 to t = 120) / (mean total ambulation […]
from t=60 to t=120 in the VAMP group)] * 100}. Mean percent reversal ± S.E.M. was calculated for each dose group using GraphPad Prism 7.
At the end of this behavioral study, each rat was euthanized, then decapitated, and the plasma and brain tissues were collected for the evaluation of exposure levels of VU6016235-05 or VU0467154-9A by pharmacokinetic analysis. […]

[8] = parameters: method as in PMID 31787491, PMID 34710625; conditions: previously reported tricycles, Figure 2; cited from earlier work
[9] = parameters: method as in PMID 31787491, PMID 34710625; conditions: previously reported tricycles, Figure 2; cited from earlier work; remark: listed apart in the source
[10] = predicted hepatic clearance from microsomal CLint
[11] = 0.2 mg/kg, total brain to total plasma ratio
[12] = fraction unbound, equilibrium dialysis
[13] = calcium mobilization, hM4/Gqi5-CHO cells, EC20 acetylcholine
[14] = calcium mobilization, hM4/Gqi5-CHO cells, EC20 acetylcholine, read-out: hM4 EC50
[15] = calcium mobilization, hM4/Gqi5-CHO cells, EC20 acetylcholine, read-out: hM4 pEC50 (converted)

Chain of rat M4 (rM4) (P08485 whole entry): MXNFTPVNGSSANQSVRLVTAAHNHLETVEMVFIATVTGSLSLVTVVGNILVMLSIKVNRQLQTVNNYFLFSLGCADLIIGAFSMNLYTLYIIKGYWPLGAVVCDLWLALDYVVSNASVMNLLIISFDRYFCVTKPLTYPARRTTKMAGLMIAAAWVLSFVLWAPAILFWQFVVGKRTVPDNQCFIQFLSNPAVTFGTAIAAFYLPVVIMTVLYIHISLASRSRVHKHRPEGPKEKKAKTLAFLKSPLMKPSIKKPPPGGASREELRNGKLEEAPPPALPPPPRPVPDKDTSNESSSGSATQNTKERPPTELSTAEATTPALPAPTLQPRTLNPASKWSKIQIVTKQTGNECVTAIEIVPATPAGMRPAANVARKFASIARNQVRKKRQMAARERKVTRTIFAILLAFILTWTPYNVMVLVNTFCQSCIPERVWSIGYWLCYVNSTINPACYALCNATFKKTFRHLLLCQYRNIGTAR

Row | Compound | CLint scaled at 1 µM [1] | rat fbrain [2] | fraction unbound at 6 h, 1 µM [2] | Kp at 0.25 h [3, 11] | Kp uu at 0.25 h ([3]; 0.2 mg/kg) | fraction unbound at 6 h, 5 µM [4, 12] | fold increase in hM4 potency (EC50) vs comparator analogue (human M4 (hM4)) | Emax (human M4 (hM4); [13]) | EC50 (human M4 (hM4); [14]) | EC50 (human M4 (hM4); [15]) | CLint scaled at 1 µM [5] | fraction unbound at 6 h, 5 µM [6, 12] | also measured
1 | Cc1nc(C)c2c(n1)sc1c(N3CC4(C3)CC(F)(F)C4)ncnc12 [14h] | 45 mL/min/kg | 0.033 | 0.012 to 0.033 | > 5 | > 1 | 0.035 | 16 fold | 50% | 100 nM | 102 nM | 121 mL/min/kg | 0.132 | EC50 (rat M4 (rM4)): 380 nM; CLhep, human [1, 10]: 14 mL/min/kg; Kp, brain:plasma ([3]; 0.25 h, total brain to total plasma ratio, 0.2 mg/kg): 5.07; Kp,uu, brain:plasma ([3]; 0.25 h, 0.2 mg/kg): 1.27; Kp,uu, brain:plasma ([3]; 0.25 h, listed as VU6015976, 0.2 mg/kg): 0.76; fraction unbound at 6 h, 5 µM ([4]; in %): 0.01 to 0.05; CLhep, rat [5, 10]: 44 mL/min/kg; fraction unbound at 6 h, 5 µM ([6]; in %): > 0.05
2 | Cc1nc(C)c2c(n1)sc1c(N3CCC(F)(F)C3)nccc12 [22f] | 148 mL/min/kg | 0.015 | 0.012 to 0.033 | 8.33 | 2.91 | 0.01 | 19 fold | 97% | < 190 nM | 33.1 nM | 1520 mL/min/kg | 0.043 | –
3 | COc1ccc(CNc2nccc3c2sc2nc(C)nc(C)c23)cc1F [22j] | 50 mL/min/kg | 0.009 | < 0.01 | 1.69 | 1.01 | 0.009 | 7 fold | 94% | 170 nM | 166 nM | 386 mL/min/kg | 0.014 | –
4 | Cc1nc(C)c2c(n1)sc1c(N3CCCC3)nccc12 [22k] | 124 mL/min/kg | 0.007 | < 0.01 | 18.6 | 3.43 | 0.023 | 4 fold | 77% | < 190 nM | – | 3060 mL/min/kg | 0.038 | hM4 pEC50 (human M4 (hM4); [13]): 7.14
5 | Cc1nnc2sc(C(=O)NCc3ccc(S(=O)(=O)C(F)(F)F)cc3)c(N)c2c1C [VU0467154, reference compound] | – | – | – | – | – | – | – | – | – | – | – | – | mean reversal of AHL [7]: 35.4 ± 4.2%
6 | Cc1cc(C)c2c(n1)sc1c(N3CC4(COC4)C3)ncnc12 [VU6007215] | – | – | – | – | – | – | – | – | – | – | – | – | Kp [8]: 4.47; Kp,uu [8]: 0.40; rat CLhep [9]: 63 mL/min/kg
7 | COc1cc(N2CC(Nc3ncnc4c3ccc3nn(C)c(C)c34)C2)c(Cl)cn1 [VU6017649] | – | – | – | – | – | – | – | – | – | – | – | – | Kp [8]: 1.55; Kp,uu [8]: 3.88; rat CLhep [9]: 44 mL/min/kg
